Source: the NIST ThermoML archive (doi:10.1016/j.jct.2017.03.006)

Assay: xn = mol fraction of the nth substance listed
Details: Liquid; for mass density: Vibrating tube method; for viscosity: Concentric cylinders viscometry

Cc1ccc(C)c(C)c1 [1,2,4-trimethylbenzene] + CCCCO
Details | mass density [kg/m3] | viscosity [mPa·s]
273.15 K, 100 kPa, x2 = 0 | 891.7 | –
273.15 K, 100 kPa, x2 = 0.1005 | 886.7 | –
273.15 K, 100 kPa, x2 = 0.2261 | 880.3 | –
273.15 K, 100 kPa, x2 = 0.2999 | 876.4 | –
273.15 K, 100 kPa, x2 = 0.3966 | 870.8 | –
273.15 K, 100 kPa, x2 = 0.5289 | 862.9 | –
273.15 K, 100 kPa, x2 = 0.6367 | 855.6 | –
273.15 K, 100 kPa, x2 = 0.7249 | 849.2 | –
273.15 K, 100 kPa, x2 = 0.9131 | 833.3 | –
273.15 K, 1000 kPa, x2 = 0 | 892.3 | –
273.15 K, 1000 kPa, x2 = 0.1005 | 887.1 | –
273.15 K, 1000 kPa, x2 = 0.2261 | 880.5 | –
273.15 K, 1000 kPa, x2 = 0.2999 | 876.7 | –
273.15 K, 1000 kPa, x2 = 0.3966 | 871.1 | –
273.15 K, 1000 kPa, x2 = 0.5289 | 863.2 | –
273.15 K, 1000 kPa, x2 = 0.6367 | 855.9 | –
273.15 K, 1000 kPa, x2 = 0.7249 | 849.5 | –
273.15 K, 1000 kPa, x2 = 0.7977 | 843.7 | –
273.15 K, 1000 kPa, x2 = 0.9131 | 833.7 | –
273.15 K, 5000 kPa, x2 = 0 | 894.6 | –
273.15 K, 5000 kPa, x2 = 0.1005 | 889.5 | –
273.15 K, 5000 kPa, x2 = 0.2261 | 883 | –
273.15 K, 5000 kPa, x2 = 0.2999 | 879.2 | –
273.15 K, 5000 kPa, x2 = 0.3966 | 873.6 | –
273.15 K, 5000 kPa, x2 = 0.5289 | 865.7 | –
273.15 K, 5000 kPa, x2 = 0.6367 | 858.5 | –
273.15 K, 5000 kPa, x2 = 0.7249 | 852.1 | –
273.15 K, 5000 kPa, x2 = 0.7977 | 846.3 | –
273.15 K, 5000 kPa, x2 = 0.9131 | 836.3 | –
273.15 K, 10000 kPa, x2 = 0 | 897.4 | –
273.15 K, 10000 kPa, x2 = 0.1005 | 892.4 | –
273.15 K, 10000 kPa, x2 = 0.2261 | 885.9 | –
273.15 K, 10000 kPa, x2 = 0.2999 | 882.1 | –
273.15 K, 10000 kPa, x2 = 0.3966 | 876.6 | –
273.15 K, 10000 kPa, x2 = 0.5289 | 868.8 | –
273.15 K, 10000 kPa, x2 = 0.6367 | 861.5 | –
273.15 K, 10000 kPa, x2 = 0.7249 | 855.2 | –
273.15 K, 10000 kPa, x2 = 0.7977 | 849.4 | –
273.15 K, 10000 kPa, x2 = 0.9131 | 839.4 | –
273.15 K, 20000 kPa, x2 = 0 | 902.8 | –
273.15 K, 20000 kPa, x2 = 0.1005 | 897.9 | –
273.15 K, 20000 kPa, x2 = 0.2261 | 891.4 | –
273.15 K, 20000 kPa, x2 = 0.2999 | 887.7 | –
273.15 K, 20000 kPa, x2 = 0.3966 | 882.2 | –
273.15 K, 20000 kPa, x2 = 0.5289 | 874.4 | –
273.15 K, 20000 kPa, x2 = 0.6367 | 867.2 | –
273.15 K, 20000 kPa, x2 = 0.7249 | 860.8 | –
273.15 K, 20000 kPa, x2 = 0.7977 | 855.2 | –
273.15 K, 20000 kPa, x2 = 0.9131 | 845.3 | –
273.15 K, 30000 kPa, x2 = 0 | 908 | –
273.15 K, 30000 kPa, x2 = 0.1005 | 903.1 | –
273.15 K, 30000 kPa, x2 = 0.2261 | 896.7 | –
273.15 K, 30000 kPa, x2 = 0.2999 | 893 | –
273.15 K, 30000 kPa, x2 = 0.3966 | 887.5 | –
273.15 K, 30000 kPa, x2 = 0.5289 | 879.7 | –
273.15 K, 30000 kPa, x2 = 0.6367 | 872.6 | –
273.15 K, 30000 kPa, x2 = 0.7249 | 866.3 | –
273.15 K, 30000 kPa, x2 = 0.7977 | 860.6 | –
273.15 K, 30000 kPa, x2 = 0.9131 | 850.8 | –
273.15 K, 40000 kPa, x2 = 0 | 912.9 | –
273.15 K, 40000 kPa, x2 = 0.1005 | 908 | –
273.15 K, 40000 kPa, x2 = 0.2261 | 901.7 | –
273.15 K, 40000 kPa, x2 = 0.2999 | 897.9 | –
273.15 K, 40000 kPa, x2 = 0.3966 | 892.5 | –
273.15 K, 40000 kPa, x2 = 0.5289 | 884.8 | –
273.15 K, 40000 kPa, x2 = 0.6367 | 877.7 | –
273.15 K, 40000 kPa, x2 = 0.7249 | 871.4 | –
273.15 K, 40000 kPa, x2 = 0.7977 | 865.8 | –
273.15 K, 40000 kPa, x2 = 0.9131 | 856 | –
273.15 K, 50000 kPa, x2 = 0 | 917.5 | –
273.15 K, 50000 kPa, x2 = 0.1005 | 912.6 | –
273.15 K, 50000 kPa, x2 = 0.2261 | 906.3 | –
273.15 K, 50000 kPa, x2 = 0.2999 | 902.7 | –
273.15 K, 50000 kPa, x2 = 0.3966 | 897.3 | –
273.15 K, 50000 kPa, x2 = 0.5289 | 889.6 | –
273.15 K, 50000 kPa, x2 = 0.6367 | 882.5 | –
273.15 K, 50000 kPa, x2 = 0.7249 | 876.2 | –
273.15 K, 50000 kPa, x2 = 0.7977 | 870.6 | –
273.15 K, 50000 kPa, x2 = 0.9131 | 860.9 | –
273.15 K, 60000 kPa, x2 = 0 | 921.9 | –
273.15 K, 60000 kPa, x2 = 0.1005 | 917.1 | –
273.15 K, 60000 kPa, x2 = 0.2261 | 910.9 | –
273.15 K, 60000 kPa, x2 = 0.2999 | 907.2 | –
273.15 K, 60000 kPa, x2 = 0.3966 | 901.8 | –
273.15 K, 60000 kPa, x2 = 0.5289 | 894.1 | –
273.15 K, 60000 kPa, x2 = 0.6367 | 887 | –
273.15 K, 60000 kPa, x2 = 0.7249 | 880.8 | –
273.15 K, 60000 kPa, x2 = 0.7977 | 875.2 | –
273.15 K, 60000 kPa, x2 = 0.9131 | 865.5 | –
273.15 K, 70000 kPa, x2 = 0 | 926.2 | –
273.15 K, 70000 kPa, x2 = 0.1005 | 921.4 | –
273.15 K, 70000 kPa, x2 = 0.2261 | 915.1 | –
273.15 K, 70000 kPa, x2 = 0.2999 | 911.4 | –
273.15 K, 70000 kPa, x2 = 0.3966 | 906.1 | –
273.15 K, 70000 kPa, x2 = 0.5289 | 898.5 | –
273.15 K, 70000 kPa, x2 = 0.6367 | 891.4 | –
273.15 K, 70000 kPa, x2 = 0.7249 | 885.2 | –
273.15 K, 70000 kPa, x2 = 0.7977 | 879.7 | –
273.15 K, 70000 kPa, x2 = 0.9131 | 870.1 | –
273.15 K, 80000 kPa, x2 = 0 | 930.3 | –
273.15 K, 80000 kPa, x2 = 0.1005 | 925.5 | –
273.15 K, 80000 kPa, x2 = 0.2261 | 919.3 | –
273.15 K, 80000 kPa, x2 = 0.2999 | 915.6 | –
273.15 K, 80000 kPa, x2 = 0.3966 | 910.3 | –
273.15 K, 80000 kPa, x2 = 0.5289 | 902.7 | –
273.15 K, 80000 kPa, x2 = 0.6367 | 895.7 | –
273.15 K, 80000 kPa, x2 = 0.7249 | 889.5 | –
273.15 K, 80000 kPa, x2 = 0.7977 | 883.9 | –
273.15 K, 80000 kPa, x2 = 0.9131 | 874.3 | –
273.15 K, 90000 kPa, x2 = 0 | 934.2 | –
273.15 K, 90000 kPa, x2 = 0.1005 | 929.4 | –
273.15 K, 90000 kPa, x2 = 0.2261 | 923.2 | –
273.15 K, 90000 kPa, x2 = 0.2999 | 919.6 | –
273.15 K, 90000 kPa, x2 = 0.3966 | 914.3 | –
273.15 K, 90000 kPa, x2 = 0.5289 | 906.7 | –
273.15 K, 90000 kPa, x2 = 0.6367 | 899.7 | –
273.15 K, 90000 kPa, x2 = 0.7249 | 893.6 | –
273.15 K, 90000 kPa, x2 = 0.7977 | 888 | –
273.15 K, 90000 kPa, x2 = 0.9131 | 878.4 | –
273.15 K, 100000 kPa, x2 = 0 | 938 | –
273.15 K, 100000 kPa, x2 = 0.1005 | 933.3 | –
273.15 K, 100000 kPa, x2 = 0.2261 | 927.1 | –
273.15 K, 100000 kPa, x2 = 0.2999 | 923.4 | –
273.15 K, 100000 kPa, x2 = 0.3966 | 918.2 | –
273.15 K, 100000 kPa, x2 = 0.5289 | 910.6 | –
273.15 K, 100000 kPa, x2 = 0.6367 | 903.6 | –
273.15 K, 100000 kPa, x2 = 0.7249 | 897.5 | –
273.15 K, 100000 kPa, x2 = 0.7977 | 891.9 | –
273.15 K, 100000 kPa, x2 = 0.9131 | 882.3 | –
273.15 K, 120000 kPa, x2 = 0 | 945.2 | –
273.15 K, 120000 kPa, x2 = 0.1005 | 940.6 | –
273.15 K, 120000 kPa, x2 = 0.2261 | 934.5 | –
273.15 K, 120000 kPa, x2 = 0.2999 | 930.8 | –
273.15 K, 120000 kPa, x2 = 0.3966 | 925.6 | –
273.15 K, 120000 kPa, x2 = 0.5289 | 918 | –
273.15 K, 120000 kPa, x2 = 0.6367 | 911.1 | –
273.15 K, 120000 kPa, x2 = 0.7249 | 905 | –
273.15 K, 120000 kPa, x2 = 0.7977 | 899.4 | –
273.15 K, 120000 kPa, x2 = 0.9131 | 889.9 | –
273.15 K, 140000 kPa, x2 = 0 | 952 | –
273.15 K, 140000 kPa, x2 = 0.1005 | 947.3 | –
273.15 K, 140000 kPa, x2 = 0.2261 | 941.3 | –
273.15 K, 140000 kPa, x2 = 0.2999 | 937.7 | –
273.15 K, 140000 kPa, x2 = 0.3966 | 932.5 | –
273.15 K, 140000 kPa, x2 = 0.5289 | 924.9 | –
273.15 K, 140000 kPa, x2 = 0.6367 | 918 | –
273.15 K, 140000 kPa, x2 = 0.7249 | 911.9 | –
273.15 K, 140000 kPa, x2 = 0.7977 | 906.4 | –
273.15 K, 140000 kPa, x2 = 0.9131 | 896.8 | –
293.15 K, 100 kPa, x2 = 0 | 875.1 | 0.888
293.15 K, 100 kPa, x2 = 0.1002 | – | 0.898
293.15 K, 100 kPa, x2 = 0.1005 | 870.2 | –
293.15 K, 100 kPa, x2 = 0.2261 | 863.7 | –
293.15 K, 100 kPa, x2 = 0.2327 | – | 0.949
293.15 K, 100 kPa, x2 = 0.3 | – | 1.001
293.15 K, 100 kPa, x2 = 0.3969 | – | 1.087
293.15 K, 100 kPa, x2 = 0.637 | – | 1.483
293.15 K, 100 kPa, x2 = 0.7975 | – | 1.975
293.15 K, 100 kPa, x2 = 0.9131 | – | 2.464
